Data set [1] deals with Poly [ADP-ribose] polymerase 1 (Homo sapiens, UniProt P09874). The data set can be described thus: Inhibitory concentration against human poly (ADP-ribose) polymerase 1 (PARP-1).
The test system of a further data set is HeLa. The data set can be described thus: Potentiation factor (ratio of the IC50 growth curve for the alkylating agent, methyl methanesulfonate (MMS) divided by the IC50 of the curve of MMS + PARP inhibitor) against human HeLa B cells at a concentration of 200 nM. In kind it is functional.
Data set [2] in a line: In vitro metabolic stability was measured in human liver microsomes. The data set is classed as ADME, Microsome. (In general: Microsomes from liver hold many membrane-bound enzymes, among them those of drug oxidation.)
Data set [3] can be described thus: In vitro metabolic stability was measured in mouse liver microsomes. In kind it is ADME, Microsome.

A value given as a limit tells only on which side of the number the result lay.

Poly [ADP-ribose] polymerase 1, sequence (P09874 whole entry): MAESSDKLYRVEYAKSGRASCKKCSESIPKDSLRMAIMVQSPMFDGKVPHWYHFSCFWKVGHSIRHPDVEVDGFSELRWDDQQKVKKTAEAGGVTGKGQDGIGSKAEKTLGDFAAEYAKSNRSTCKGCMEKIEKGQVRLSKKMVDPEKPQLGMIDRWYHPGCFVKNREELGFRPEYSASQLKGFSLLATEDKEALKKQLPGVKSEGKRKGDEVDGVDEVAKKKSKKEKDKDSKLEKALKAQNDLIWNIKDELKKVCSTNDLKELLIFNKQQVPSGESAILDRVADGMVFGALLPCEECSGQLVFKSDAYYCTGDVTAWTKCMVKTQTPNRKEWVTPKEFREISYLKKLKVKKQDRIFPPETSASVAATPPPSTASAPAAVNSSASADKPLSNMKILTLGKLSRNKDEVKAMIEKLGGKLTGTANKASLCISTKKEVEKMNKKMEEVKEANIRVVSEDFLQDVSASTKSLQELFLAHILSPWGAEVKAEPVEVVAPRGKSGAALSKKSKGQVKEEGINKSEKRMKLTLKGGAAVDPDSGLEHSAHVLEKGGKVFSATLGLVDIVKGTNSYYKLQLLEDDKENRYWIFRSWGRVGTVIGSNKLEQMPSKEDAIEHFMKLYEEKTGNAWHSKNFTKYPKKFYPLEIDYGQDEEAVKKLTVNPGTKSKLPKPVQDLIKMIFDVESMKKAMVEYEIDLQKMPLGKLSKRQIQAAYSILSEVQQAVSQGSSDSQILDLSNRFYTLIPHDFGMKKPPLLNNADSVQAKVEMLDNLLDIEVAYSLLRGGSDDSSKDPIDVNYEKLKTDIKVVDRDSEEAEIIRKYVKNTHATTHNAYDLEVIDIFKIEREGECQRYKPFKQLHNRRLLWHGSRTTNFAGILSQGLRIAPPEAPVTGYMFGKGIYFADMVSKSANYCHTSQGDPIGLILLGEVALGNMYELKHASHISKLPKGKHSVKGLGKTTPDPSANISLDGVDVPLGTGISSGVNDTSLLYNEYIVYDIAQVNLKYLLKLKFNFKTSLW

Broadly, the IC50 is the concentration needed to halve the response being measured. As for `CC(C)C(=O)Nc1cccc(Cc2nnc(O)c3ccccc23)c1`, the IC50 in data set [1] came out at 0.37 µM.

`CCOC(=O)Nc1cccc(Cc2nnc(O)c3ccccc23)c1` returned an IC50 in data set [1] of 0.116 µM.

In the case of `O=C(Nc1cccc(Cc2nnc(O)c3ccccc23)c1)c1ccc(-n2cccn2)nc1`, in data set [1], 0.047 µM corresponded to half-maximal inhibition (IC50). This IC50 is about 2.5-fold lower than that of the molecule before.

In data set [1], `CCS(=O)(=O)Nc1cccc(Cc2n[nH]c(=O)c3ccccc23)c1` displayed an IC50 of 0.29 µM. This IC50 lies about 6.2-fold higher than the previous one.

Regarding `Cc1noc(-c2cccc(Cc3nnc(O)c4ccccc34)c2)n1`, the IC50 in data set [1] was determined as 0.189 µM.

Take `O=C1CCC(=O)N1c1cccc(Cc2n[nH]c(=O)c3ccccc23)c1`: the PF50 in the data set with HeLa stood at 1.74. In data set [2], this molecule registered a Cli of less than 0.05 ml min-1 g-1 liver.

`O=C(Nc1cccc(Cc2nnc(O)c3ccccc23)c1)C(F)(F)F` showed an IC50 in data set [1] of 0.013 µM. In data set [3], this molecule yielded a Cli greater than 50 ml min-1 g-1 liver.

Take `O=C1CCC(=O)N1c1cc(Cc2n[nH]c(=O)c3ccccc23)ccc1Cl`: the PF50 with HeLa worked out at 1.5.

Regarding `CN1CC(=O)N(c2cc(Cc3nnc(O)c4ccccc34)ccc2F)C(=O)C1`, in the data set on HeLa, the PF50 was 3.1.

`O=C1CCC(=O)N1c1cc(Cc2n[nH]c(=O)c3ccccc23)ccc1F`: the IC50 in data set [1] is 0.005 µM. The molecule also gave a Cli in data set [3] of less than 1 ml min-1 g-1 liver. For the same molecule, the PF50 with HeLa is 5.62.

Turning to `O=C1CC(c2ccccc2)C(=O)N1c1cc(Cc2n[nH]c(=O)c3ccccc23)ccc1F` (configuration not stated), the PF50 with HeLa is 5.4.

With `O=C(Nc1cccc(Cc2n[nH]c(=O)c3ccccc23)c1)C1CC1`, the midpoint of inhibition in data set [1], the IC50, lay at 0.055 µM.

With `O=C1CCCN1c1cccc(Cc2n[nH]c(=O)c3ccccc23)c1`, the Cli in data set [3] is on record as 4.9 ml min-1 g-1 liver.

In data set [1], `CCCNC(=O)Nc1cccc(Cc2n[nH]c(=O)c3ccccc23)c1` had an IC50 of 0.54 µM.

Take `CC1(C)CC(=O)N(c2cc(Cc3nnc(O)c4ccccc34)ccc2F)C1=O`: the PF50 with HeLa came out at 2.9.

`O=C1C=CC(=O)N1c1cccc(Cc2nnc(O)c3ccccc23)c1`: the PF50 in the data set with HeLa came to 0.94.

As for `O=C1CCCC(=O)N1c1cc(Cc2n[nH]c(=O)c3ccccc23)ccc1F`, the PF50 in the data set on HeLa was found to be 3.6.

In turn, `O=C1c2ccccc2C(=O)N1c1cccc(Cc2n[nH]c(=O)c3ccccc23)c1` returned an IC50 in data set [1] of 0.18 µM.

For `CC1CC(=O)N(c2cc(Cc3n[nH]c(=O)c4ccccc34)ccc2F)C1=O` (configuration not stated), the PF50 with HeLa amounted to 18.2.

Molecule `COc1ccc(Cc2n[nH]c(=O)c3ccccc23)cc1N1C(=O)CCC1=O` showed an IC50 in data set [1] of 0.033 µM. The PF50 with HeLa is 1.5.

In turn, `CC(=O)Oc1cccc(Cc2n[nH]c(=O)c3ccccc23)c1` showed an IC50 in data set [1] of 0.036 µM.

In turn, `CCC(=O)Nc1cccc(Cc2n[nH]c(=O)c3ccccc23)c1` came in with an IC50 in data set [1] of 0.02 µM. The Cli in data set [3] worked out at 12 ml min-1 g-1 liver.

In data set [1], `O=C(Nc1cccc(Cc2n[nH]c(=O)c3ccccc23)c1)c1ccc(-c2ccsc2)s1` had an IC50 of 0.056 µM.

Molecule `CCNC(=O)c1cccc(Cc2n[nH]c(=O)c3ccccc23)c1` displayed an IC50 in data set [1] of 0.05 µM. In data set [3], this molecule came in with a Cli of less than 1 ml min-1 g-1 liver.

As for `COc1ccc(-n2cc(C(=O)Nc3cccc(Cc4n[nH]c(=O)c5ccccc45)c3)c(C)n2)cc1`, inhibition in data set [1] was half-maximal at 0.01 µM (IC50). That is a double-digit nanomolar value.

As to `Cc1nc(-c2ccccc2)sc1C(=O)Nc1cccc(Cc2n[nH]c(=O)c3ccccc23)c1`, half-maximal inhibition in data set [1] (IC50) required 0.027 µM.

`CCCC(=O)Nc1cccc(Cc2n[nH]c(=O)c3ccccc23)c1` yielded an IC50 in data set [1] of 0.09 µM.

Regarding `O=C1C2CC2C(=O)N1c1cc(Cc2nnc(O)c3ccccc23)ccc1F` (configuration not stated), the IC50 in data set [1] worked out at 0.005 µM. In addition, the PF50 in the data set on HeLa is on record as 14.4.

For the molecule `O=c1[nH]nc(Cc2ccccc2)c2ccccc12`, the IC50 in data set [1] worked out at 0.77 µM.

Source of the values: ChEMBL document CHEMBL1141921, “Phthalazinones. Part 1: The design and synthesis of a novel series of potent inhibitors of poly(ADP-ribose)polymerase” (Bioorg Med Chem Lett, 2005).
